Experimental data published in patent US20120283120A1, “SCREENING METHOD” (Takeda Pharmaceutical Company Limited, priority 2009, published 2012).

Key:
Format in all cases: cell-based, human
JDCaP-hr cells = assay: JDCaP-hr cell proliferation after siRNA transfection; details: cultured for 5 days; for growth promotion due to DHT: DHT added; for cell proliferation (growth inhibition): androgen-free conditions
Procedure: siRNA targeting AR-specific exon 8 (siAR), siRNA targeting ARaiv1-specific exon 4b (siARaiv1) or siRNA targeting exon 1 common to the both (siDual) was transfected into JDCaP-hr cells, the cells were cultured for 5 days in an androgen-free medium added with DHT or DMSO, and the cell proliferation was measured (FIG. 7). […] On the other hand, the growth inhibitory effect was partial in the siAR transfection group.

22Rv1 cells = assay: colony formation assay of 22Rv1 cells after shRNA expression vector transfection; details: androgen-free conditions
Source text: Expression plasmids of shRNA targeting AR-specific exon 8 (shAR), shRNA targeting ARaiv1-specific exon 4b (shARaiv1) and shRNA targeting exon 1 common to the both (shDual) were constructed using siSTRIKE U6 hairpin cloning system (Promega). The target sequences of shAR and siARaiv1 were the same as those of the above-mentioned siAR and siARaiv1. As the target sequence of shRNA specific to exon 1 (shDual), the sequence of exon 1-specific siRNA (5′-[…]-3′ (SEQ ID NO: 31)) contained in siDual was used.
The expression vector of shAR, siARaiv1 or shDual was transfected into 22Rv1 cells, and a colony formation assay was carried out under androgen-free conditions. In the siARaiv1 transfection group, the number of colonies decreased to 19% of that of the non-specific shRNA (shNS) transfection group (NS group). In the shDual transfection group, the number of colonies decreased to 4% of that of the NS group, and remarkable suppression of colony formation was observed. On the other hand, the colony formation ability of the shAR transfection group was 54% of the NS group, and the decrease was weaker as compared to the ARaiv1 knockdown group.

[1] = test system: C-terminally defective-type AR; assay: Western blotting of AR production after siRNA transfection in JDCaP-hr cells; details: 48 hr from siRNA transfection
Source text: (§1) An siRNA targeting exon 4b specific to ARaiv1 (siARaiv1: 5′-[…]-3′ (SEQ ID NO: 29)) was designed and synthesized by Qiagen. In addition, an siRNA targeting exon 8 specific to AR (siAR: Hs_AR—6_HP Validated siRNA: 5′-[…]-3′ (SEQ ID NO: 30)) and an siRNA cocktail containing siRNA targeting exon 1 common to AR and ARaiv1 (siDual: OTP SMART pool, L-003400-00-0005) were purchased from Qiagen and Dharmacon, respectively. siAR, siARaiv1 or siDual was transfected into JDCaP-hr cells. RNA was extracted from the cells after 48 hr from the siRNA transfection, and the expression level of the target gene was analyzed by quantitative RT-PCR. As a result, it was confirmed that gene knockdown by each siRNA was carried out sufficiently efficiently (FIG. 6a). To examine changes in the C-terminally defective-type AR protein production, which were caused by the ARaiv1 knockdown, an extract was prepared from the cells after 48 hr from the siRNA transfection, and the production of AR and β-actin was examined by Western blotting. The production of only full-length AR in the siAR transfection group, only C-terminally defective-type AR in the siARaiv1 transfection group, and the both in the siDual transfection group decreased (FIG. 6b).

[2] = test system: 4 kinds of ARaiv1 clones (ARaiv1, ARaiv1Δ1, ARaiv1Δ2, ARaiv1Δ3); assay: reporter gene assay of ARaiv1 clones with pGL3-2×PSA reporter in COS7 cell (luciferase); details: bicalutamide added 24 hr after cotransfection, luciferase assay 24 hr later
Procedure: The above-mentioned 4 kinds of ARaiv1 clones (ARaiv1 and ARaiv1Δ1, ARaiv1Δ2 and ARaiv1Δ3) were respectively subcloned to a pcDNA3.1 expression vector, and the transcription activity was examined by a reporter gene assay. The ARaiv1 clone expression vector and pGL3-2×PSA reporter were cotransfected into COS7 cell. After 24 hr, DHT or an AR antagonist bicalutamide, was added, and 24 hr later, a luciferase assay was performed.

full-length AR = assay: Western blotting of AR production after siRNA transfection in JDCaP-hr cells; details: 48 hr from siRNA transfection
Source text: as §1

Row | Molecule | growth promotion due to DHT (JDCaP-hr cells) | cell proliferation (growth inhibition) (JDCaP-hr cells) | number of colonies relative to non-specific shRNA (NS) group (22Rv1 cells) | production of C-terminally defective-type AR [1] | transcription activity of 4 kinds of ARaiv1 clones (reporter activity) [2] | production of full-length AR (full-length AR)
1 | siARaiv1: siRNA targeting exon 4b specific to ARaiv1: 5′-gattgttcttgatcacata-3′ (SEQ ID NO: 29) (GATTGTTCTTGATCACATA; listed as DNA, chemistry not given here) | growth promotion due to DHT was observed | remarkable growth inhibition | 19% | decreased |  | 
2 | CC(O)(CS(=O)(=O)c1ccc(F)cc1)C(=O)Nc1ccc(C#N)c(C(F)(F)F)c1 (centres unmarked) [bicalutamide] |  |  |  |  | not inhibited | 
3 | siAR: siRNA targeting exon 8 specific to AR, Hs_AR—6_HP Validated siRNA: 5′-ggaacucgaucguaucauu-3′ (SEQ ID NO: 30) (GGAACUCGAUCGUAUCAUU; chemistry not given here) | remarkably inhibited | partial |  |  |  | decreased
